In a melting point compilation (Tetko et al.; mined from patent text by program, amines drawn as free bases though some values may be those of a salt) one finds melting point data, which are given here for 35 compounds.

Molecules are shown by their SMILES.

In the case of `COc1cc(OC)c2c(=O)[nH]c(-c3ccc(OCCNC(C)C)c(-c4cccc(S(C)(=O)=O)c4)n3)nc2c1`, the melting point fell in the range of 222 to 223 °C. Turning to `CC[C@H](C)[C@H](NC[C@@H](N)CS)C(=O)N[C@@H](Cc1ccccc1)C(=O)N[C@@H](CCSC)C(=O)OCc1ccccc1`, the melting point was 71 to 78 °C. The compound `FC(F)(F)c1cc(Cl)c(Oc2ccc3ccc(S)cc3c2)c(Cl)c1` had a melting point of 98 °C. `CCc1cc(C(=O)c2ccccc2Cl)c(NC=C[N+](=O)[O-])s1` showed a melting point of 125 to 126 °C. For `CCOC(=O)c1c(C)nc(NCCCN(C)C)c2nnn(CC)c12`, the melting point was in the range of 30 to 34 °C.

On to `CCNC(=NS(=O)(=O)c1ccc(C#N)cc1)N1CC(CC)C=N1` (stereo not given), for which the melting point was 146 to 149 °C. As to `O=c1c(N2CCNCC2)nccn1CCOc1cccc([N+](=O)[O-])c1`, the melting point came out at 171 °C. `CCc1nnc2nc(-c3ccccc3)ccn12` yielded a melting point of 246 to 247 °C. Consider `CCSc1c2ccccc2c(C=O)c2ccccc12`, for which the melting point was in the range of 74 to 75.5 °C. As for `CC(C)CC(NC(=O)OCc1ccccc1)C(=O)NC(Cc1cccc2ccccc12)C(=O)CSCc1ccco1` (stereo not given), the melting point fell in the range of 71 to 74 °C. Consider `CN1C(=O)[C@H](NC(=O)CCc2ccc(C(F)(F)F)cc2)N=C(c2ccccc2)c2ccccc21`, for which the melting point lay within 175 to 176 °C. Consider `COc1cc(C(C)=O)ccc1OCCN1CCC(c2noc3cc(Cl)ccc23)CC1`, for which the melting point lay within 133 to 135 °C. As to `Cc1nc(-c2cccc(C(F)(F)F)c2)ccc1C=O`, the melting point was in the range of 61 to 63 °C.

Take `O=CNc1nc(-c2ccccc2)c2cc(Cl)ccc2n1`: the melting point worked out at 252 °C. In the case of `CC(C)(C)C(=O)ON=C(N)CN1C(=O)C2(COc3cc4c(cc32)OCO4)c2ccccc21` (stereo not given), the melting point was 183 to 185 °C. To `CN1C(=O)c2c(n3ccnc3c3c2c2cccnc2n3C2OC(CO)C(O)C(O)C2O)C1=O` (stereo not given) belongs 298 °C; to `CC1C(=S)Nc2c(F)cc(F)cc21` (stereo not given), 151 to 152 °C.

Turning to `COc1ccc(S(=O)(=O)C2=C(C(=O)NO)CCC2=CCCc2ccccc2)cc1OC`, the melting point was 70 to 73 °C. Compound `COC1=CC(=O)N([C@@H]2c3cc(C#N)ccc3OC(C)(C)[C@H]2O)C1` (relative stereo) came in with a melting point of 225 °C. Next, `CCCCCCCCC1OC(=O)c2cc(N)ccc21` (stereo not given): 124 to 125 °C; `CC(C)CC(NC1OC(=O)C2C3C=CC(C3)C12)C(=O)OCc1ccccc1` (stereo not given): 88 °C. `Oc1cc(O)c2c(-c3cc(F)cc(F)c3)c(Br)oc2c1` returned a melting point of 121 to 122 °C. To `CCC(C(=O)O)c1cccc(C(=O)c2cc3cc(C(=O)O)sc3s2)c1` (stereo not given) belongs 240 °C.

On to `Cc1ccc(N2CCc3cc(Br)ccc32)c([N+](=O)[O-])c1`, for which the melting point lay in the range of 105 to 107 °C. The compound `CCc1nn(C2CCCC2)c2cc(C(=O)Nc3cccc4ncccc34)ccc12` had a melting point of 176 to 178 °C. As to `O=C1c2ccccc2C(=O)N1[C@H]1C=C[C@@H](O)CC1` (racemic), the melting point was in the range of 126 to 129 °C.

For the compound `[N-]=[N+]=Nc1cc(=O)oc2ccccc12`, the melting point was in the range of 159 to 160 °C.

`COC(C)=CC(=O)Nc1cccc(Br)c1` returned a melting point of 110 °C. Next, `O=C(c1ccnc(F)c1)N1CCC[C@H](c2noc(-c3ccc(F)cc3)n2)C1`: 117 to 119 °C. With `CC1(N2Cc3c(N)cccc3C2=O)CCC(=O)NC1=O` (stereo not given), the melting point lay within 289 to 292 °C. As to `Cc1ccc2cccc(OCc3c(C)ccc(N)c3C)c2n1`, the melting point lay in the range of 204 to 205 °C. `NNN=CN(N)CC(=O)O` came in with a melting point of 148 to 149 °C. In turn, `Cc1nn(-c2ccc(C#N)c(Cl)c2)c(C)c1Oc1ccc(NC(=O)C(C)(C)C)cn1` displayed a melting point of 191 to 192 °C. The compound `O=C(O)C1Cc2cc3c(-c4ccccc4F)noc3cc2O1` (stereo not given) showed a melting point of 194 to 196 °C. `CN(C)C(=O)CC1(C)OCCc2c1[nH]c1c3c(ccc21)CCCC3` (stereo not given) registered a melting point of 176 to 178 °C.
